Reference: patent US20030215462A1, “Use of UGT inhibitors to increase bioavailability” (priority 2001, published 2003)
Values joined by “and” are separate entries in the source; they are usually repeats but may differ in a detail not shown here. Equal entries are not always repeated. Each block holds one compound with its values, some of them ahead of it.

What was measured:
Type in all cases: biochemical
[1] = system: UGT enzymes of human liver microsomes; experiment: Inhibition of raloxifene glucuronidation (G1, G2) in human liver microsomes; conditions: for % of control metabolism (SD, n = 3), raloxifene glucuronide G1 / % of control metabolism (SD, n = 3), raloxifene glucuronide G2: human liver microsomes 250 μg/ml, 15 min
Source text: (§1) Compounds were eluted using a binary solvent gradient system. […] Solvent B was methanol. […] Detection was at 280 nm.

[2] = system: T1, UGT enzymes of human liver microsomes; experiment: Inhibition of estradiol (E2) glucuronidation in human liver microsomes; conditions: liver 032101, E2 50 μM
T1 construct: residual metabolism (% of control), E2-17-β-D-glucuronide; other: liver 032101; residual metabolism (% of control), E2-17-β-D-glucuronide
Source text: (§2) Compounds were eluted using a binary solvent gradient system where solvent A was dilute phosphoric acid (pH 3) and solvent B was 80:20 acetonitrile-methanol. […] Detection was at 280 nm.

[3] = system: T2, UGT enzymes of human liver microsomes; experiment: Inhibition of 2ME2 glucuronidation (MG1, MG2) in human liver microsomes; conditions: liver 062101, 2ME2 50 μM
T2 construct: other: liver 062101
Source text: as §2

[4] = biological target: T3, UGT enzymes of human liver microsomes (Homo sapiens, UniProt P16662); experiment: Inhibition of zidovudine glucuronidation in human liver microsomes; conditions: liver lot 062101
T3 construct: residual metabolism (percentage of control), zidovudine glucuronidation; other: liver lot 062101; residual metabolism (percentage of control), zidovudine glucuronidation; residual metabolism (percentage of control)
T3 sequence (P16662 1-529): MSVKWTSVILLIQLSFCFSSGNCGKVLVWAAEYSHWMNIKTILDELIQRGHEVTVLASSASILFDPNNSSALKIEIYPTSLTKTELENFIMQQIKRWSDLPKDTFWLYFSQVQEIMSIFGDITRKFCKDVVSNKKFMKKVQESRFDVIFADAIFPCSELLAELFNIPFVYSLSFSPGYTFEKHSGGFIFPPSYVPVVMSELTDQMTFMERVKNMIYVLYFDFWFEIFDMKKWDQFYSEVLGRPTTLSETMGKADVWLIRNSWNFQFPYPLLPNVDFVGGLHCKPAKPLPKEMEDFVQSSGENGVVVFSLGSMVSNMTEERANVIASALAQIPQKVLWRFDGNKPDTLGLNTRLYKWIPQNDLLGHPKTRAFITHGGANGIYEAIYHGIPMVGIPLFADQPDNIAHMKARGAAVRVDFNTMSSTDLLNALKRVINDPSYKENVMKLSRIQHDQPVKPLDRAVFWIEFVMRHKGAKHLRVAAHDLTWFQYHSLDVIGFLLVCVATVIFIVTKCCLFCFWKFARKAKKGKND
Description: Compounds were eluted using a binary solvent gradient system where solvent A was dilute phosphoric acid (pH 3) and solvent B was acetonitrile.
Standardized incubations utilized 500 μM zidovudine substrate, 1 mg/ml microsomal protein, 5 mM UDPGA and a 30 min incubation time. […] Int.

[5] = system: UGT enzymes of pooled human jejunum microsomes; experiment: Inhibition of raloxifene glucuronidation (G1, G2) in pooled human jejunum microsomes; conditions: jejunum HJ61; inhibitor 50 μM
Description: as §1
Standardized incubations utilized […] microsomal protein, 1 mM UDPGA and a 30 min incubation time.

[6] = system: UGT enzymes of pooled human jejunum microsomes; experiment: Inhibition of 2ME2 glucuronidation (MG1) in pooled human jejunum microsomes; conditions: jejunum HJ61, 2ME2 50 μM
Source text: as §2

[7] = system: T4, UGT enzymes of human liver microsomes; experiment: Inhibition of labetalol glucuronidation (LG1, LG2) in human liver microsomes; conditions: labetalol 50 μM
T4 construct: residual metabolism (percentage of control), labetalol LG1; other: labetalol 50 μM; residual metabolism (percentage of control), labetalol LG1; residual metabolism (percentage of control), labetalol LG2; inhi
Description: Supernatants were analyzed by HPLC with fluorescence detection.
Compounds were eluted using a binary solvent gradient system where solvent A was 5:5:90 tetrahydrofuran-acetonitrile-(NH4)2HPO4 50 mM, while solvent B was 25:25:50 tetrahydrofuran-acetonitrile-(NH4)2HPO4 50 mM. Solvent flow rate was 0.75 ml/min and the column temperature was ambient. […] Labetalol and metabolites were measured by fluorescence detection using a Jasco model FP920 detector. Excitation and emission wavelengths were 370 nm 418 nm respectively. Retention times for salicylamide internal standard and labetalol were 6.6 min and 15.0 min respectively.

[8] = system: UGT enzymes of human liver microsomes; experiment: Inhibition of estradiol (E2) glucuronidation in human liver microsomes; conditions: liver 062101; E2 50 μM; inhibitor 100 μM
Source text: as §2

[9] = system: T5, UGT enzymes of human liver microsomes; experiment: as above; conditions: liver 032101; E2 50 μM; inhibitor 100 μM
T5 construct: residual metabolism (% of control), E2-3-β-D-glucuronide; other: liver 032101; residual metabolism (% of control), E2-3-β-D-glucuronide
Source text: as §2

[10] = inhibitor 500 μM, raloxifene 50 μM
[11] = inhibitor 25 μM, raloxifene 50 μM
[12] = inhibitor 50 μM, raloxifene 50 μM
[13] = inhibitor 100 μM, raloxifene 50 μM
[14] = liver lot 032101, inhibitor 50 μM
[15] = liver lot 062101, inhibitor 50 μM
[16] = liver lot 083000, inhibitor 50 μM
[17] = raloxifene 50 μM, inhibitor 25 μM
[18] = raloxifene 50 μM, inhibitor 50 μM
[19] = raloxifene 50 μM, inhibitor 100 μM

% of control metabolism (SD, n = 3), raloxifene glucuronide G1 [1, 10]: 104 (11) %
% of control metabolism (SD, n = 3), raloxifene glucuronide G2 [1, 10]: 102 (4) %
SMILES: CC(CCc1ccccc1)NCC(O)c1ccc(O)c(C(N)=O)c1 (centres unmarked) [Labetalol, labetalol]

SMILES: C=CCc1ccc(O)c(OC)c1 [Eugenol]
residual metabolism (% of control), E2-17-β-D-glucuronide ([2]; inhibitor 50 μM): obs, 94 (5) %
residual metabolism (% of control), E2-17-β-D-glucuronide ([2]; inhibitor 100 μM): obs, 89 (6) %
residual metabolism (% of control), 2ME2 MG2 ([3]; inhibitor 100 μM): 72 (1) %
residual metabolism (percentage of control), zidovudine glucuronidation ([4]; inhibitor 500 μM): 84 (2) %
residual metabolism (percentage of control), zidovudine glucuronidation ([4]; inhibitor 1000 μM): 48 (4) %
% of control metabolism, raloxifene G1 [5]: 91 (1) %
% of control metabolism, raloxifene G2 [5]: 96 (5) %
residual metabolism (% of control), 2ME2 MG1 ([6]; inhibitor 100 μM): 104 (4) %
residual metabolism (percentage of control), labetalol LG1 ([7]; inhibitor 100 μM): 82 (2) %
residual metabolism (percentage of control), labetalol LG2 ([7]; inhibitor 100 μM): 75 (4) %
% of control metabolism, raloxifene G1 ([1]; 50 µM): 39 (0), 41 (3) % and 65 (1), 63 (3) % and 69 (4), 53 (2) %
% of control metabolism, raloxifene G2 ([1]; 50 µM): 39 (0), 41 (3) % and 65 (1), 63 (3) % and 69 (4), 53 (2) %

residual metabolism (% of control), E2-3-β-D-glucuronide [8]: 59 (2), obs %
residual metabolism (% of control), E2-3-β-D-glucuronide [9]: 49 (1), obs %
residual metabolism (% of control), 2ME2 MG1 ([3]; inhibitor 50 μM): 63 (2) %
residual metabolism (% of control), 2ME2 MG2 ([3]; inhibitor 50 μM): 90 (5) %
residual metabolism (% of control), 2ME2 MG1 ([3]; inhibitor 100 μM): 49 (1) %
residual metabolism (% of control), 2ME2 MG2 ([3]; inhibitor 100 μM): 91 (1) %
residual metabolism (percentage of control), zidovudine glucuronidation ([4]; inhibitor 500 μM): 74 (2) %
residual metabolism (percentage of control), zidovudine glucuronidation ([4]; inhibitor 1000 μM): 43 (2) %
% of control metabolism, raloxifene G1 [5]: 69 (3) %
% of control metabolism, raloxifene G2 [5]: 93 (6) %
residual metabolism (% of control), 2ME2 MG1 ([6]; inhibitor 50 μM): 91 (1) %
residual metabolism (% of control), 2ME2 MG1 ([6]; inhibitor 100 μM): 82 (2) %
residual metabolism (percentage of control), labetalol LG1 ([7]; inhibitor 50 μM): 92 (4) %
residual metabolism (percentage of control), labetalol LG2 ([7]; inhibitor 50 μM): 80 (3) %
residual metabolism (percentage of control), labetalol LG1 ([7]; inhibitor 100 μM): 80 (6) % and 86 (5) %
residual metabolism (percentage of control), labetalol LG2 ([7]; inhibitor 100 μM): 70 (4) % and 73 (2) %
% of control metabolism (SD, n = 3), raloxifene glucuronide G1 [1, 11]: 63 (3) %
% of control metabolism (SD, n = 3), raloxifene glucuronide G1 [1, 12]: 43 (1) %
% of control metabolism (SD, n = 3), raloxifene glucuronide G1 [1, 13]: 30 (4) %
% of control metabolism (SD, n = 3), raloxifene glucuronide G1 [1, 10]: 6 (1) %
% of control metabolism (SD, n = 3), raloxifene glucuronide G2 [1, 11]: 66 (1) %
% of control metabolism (SD, n = 3), raloxifene glucuronide G2 [1, 12]: 45 (2) %
% of control metabolism (SD, n = 3), raloxifene glucuronide G2 [1, 13]: 34 (1) %
% of control metabolism (SD, n = 3), raloxifene glucuronide G2 [1, 10]: 7 (1) %
% of control metabolism, raloxifene G1 [1, 14]: 52 (1) %
% of control metabolism, raloxifene G2 [1, 14]: 54 (0) %
% of control metabolism, raloxifene G1 [1, 15]: 67 (2) %
% of control metabolism, raloxifene G2 [1, 15]: 57 (2) %
% of control metabolism, raloxifene G1 [1, 16]: 43 (1) %
% of control metabolism, raloxifene G2 [1, 16]: 45 (2) %
% of control metabolism, raloxifene G1 [1, 17]: 63 (3) %
% of control metabolism, raloxifene G2 [1, 17]: 66 (1) %
% of control metabolism, raloxifene G1 [1, 18]: 43 (1) %
% of control metabolism, raloxifene G2 [1, 18]: 45 (2) %
% of control metabolism, raloxifene G1 [1, 19]: 30 (4) %
% of control metabolism, raloxifene G2 [1, 19]: 34 (1) %
SMILES: O=C(O)c1cc(-c2ccc(F)cc2F)ccc1O [Diflunisal, reference compound]
